Structures are written as SMILES.

A word on the IC50: it is the concentration that inhibits the measured activity by half.

For one test, the target named is LXRβ (Homo sapiens (Human), UniProt P55055). The experiment in a line: In vitro assay LXRβ: PathHunter NHR CHO cells, LXRβ / Steroid Receptor Co-activator Peptide enzyme fragment complementation. The note with it: PathHunter NHR CHO cells, full-length human LXRβ and SRCP, chemiluminescent signal; read-out: LXRβ PPI. The format is cell-based. The method, boiled down: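 Enzyme fragment complementation read-out: CHO cells stably expressing ProLink-tagged full-length human LXRβ plus nuclear enzyme acceptor–SRCP fusion, seeded and held overnight at 37° C. Medium with charcoal-dextran filtered serum; final vehicle 1%. Chemiluminescence measured after signal generation.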

The target of the next test is SREBP-2 (Homo sapiens (Human), UniProt Q12772). Briefly: In vitro assay SREBP-2: PathHunter U2OS SREBP-2 Nuclear Translocation Cell Line, U18666A-stimulated. The class given is cell-based. The note with it: PathHunter U2OS SREBP-2 nuclear translocation cells, U18666A 10 μM, overnight (16 hours).

Chain of LXRβ (P55055 whole entry, the tested form may be a part): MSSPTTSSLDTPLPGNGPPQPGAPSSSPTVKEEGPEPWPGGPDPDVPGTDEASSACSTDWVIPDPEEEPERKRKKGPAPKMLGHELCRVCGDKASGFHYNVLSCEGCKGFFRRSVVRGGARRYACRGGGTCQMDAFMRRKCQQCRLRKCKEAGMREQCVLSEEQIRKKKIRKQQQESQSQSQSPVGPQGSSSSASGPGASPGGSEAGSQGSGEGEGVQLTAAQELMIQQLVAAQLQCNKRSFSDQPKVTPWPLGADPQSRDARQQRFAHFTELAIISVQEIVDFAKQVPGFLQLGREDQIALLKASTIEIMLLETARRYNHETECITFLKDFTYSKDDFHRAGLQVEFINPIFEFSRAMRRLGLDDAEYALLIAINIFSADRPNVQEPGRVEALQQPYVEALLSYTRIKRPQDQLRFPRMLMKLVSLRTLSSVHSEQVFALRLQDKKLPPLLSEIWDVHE

Take `C[C@H](COC(=O)N1CCN(C(=O)c2cnn(C)c2)CC1)[C@H]1CC[C@H]2[C@@H]3CC=C4C[C@@H](O)CC[C@]4(C)[C@H]3CC[C@]12C` [Example 596, (S)-2-((3S,8S,9S,10R,13S,14S,17R)-3-hydroxy-10,13-dimethyl-2,3,4,7,8,9,10,11,12,13,14,15,16,17-tetradecahydro-1H-cyclopenta[a]phenanthren-17-yl)propyl 4-(1-methyl-1H-pyrazole-4-carbonyl)piperazine-1-carboxylate]: on LXRβ, the EC50 is more than 10 µM. The compound further yielded a half-inhibitory concentration (IC50) at SREBP-2 of less than 0.25 µM.
Take `CON(CCN)C(=O)CC[C@@H](C)[C@H]1CC[C@H]2[C@@H]3CC=C4C[C@@H](O)CC[C@]4(C)[C@H]3CC[C@]12C` [Example 64, (R)—N-(2-aminoethyl)-4-((3S,8S,9S,10R,13R,14S,17R)-3-hydroxy-10,13-dimethyl-2,3,4,7,8,9,10,11,12,13,14,15,16,17-tetradecahydro-1H-cyclopenta[a]phenanthren-17-yl)-N-methoxypentanamide]: the EC50 at LXRβ is less than 0.25 µM. The IC50 at SREBP-2 lay in the range of 0.25 to 1 µM.
Consider `C[C@H](CCC(=O)N1CCN(c2ccnn2C)[C@@H](C)C1)[C@H]1CC[C@H]2[C@@H]3CC=C4C[C@@H](O)CC[C@]4(C)[C@H]3CC[C@]12C` [Example 608, (R)-4-((3S,8S,9S,10R,13R,14S,17R)-3-hydroxy-10,13-dimethyl-2,3,4,7,8,9,10,11,12,13,14,15,16,17-tetradecahydro-1H-cyclopenta[a]phenanthren-17-yl)-1-((S)-3-methyl-4-(1-methyl-1H-pyrazol-5-yl)piperazin-1-yl)pentan-1-one], for which the EC50 at LXRβ was more than 10 µM. For the same compound, the concentration for half-maximal inhibition (IC50) against SREBP-2 is less than 0.25 µM.
Turning to `C[C@H](CCc1cncs1)[C@H]1CC[C@H]2[C@@H]3CC=C4C[C@@H](O)CC[C@]4(C)[C@H]3CC[C@]12C` [Example 173, (3S,8S,9S,10R,13R,14S,17R)-10,13-dimethyl-17-((R)-4-(thiazol-5-yl)butan-2-yl)-2,3,4,7,8,9,10,11,12,13,14,15,16,17-tetradecahydro-1H-cyclopenta[a]phenanthren-3-ol], at LXRβ, the EC50 is more than 10 µM. For the same compound, at SREBP-2, the IC50 is 0.25 to 1 µM.
The corresponding values for `CCC(=O)N1CCN(C(=O)CC[C@@H](C)[C@H]2CC[C@H]3[C@@H]4CC=C5C[C@@H](O)CC[C@]5(C)[C@H]4CC[C@]23C)C[C@@H]1C` [Example 569, (R)-4-((3S,8S,9S,10R,13R,14S,17R)-3-hydroxy-10,13-dimethyl-2,3,4,7,8,9,10,11,12,13,14,15,16,17-tetradecahydro-1H-cyclopenta [a]phenanthren-17-yl)-1-((S)-3-methyl-4-propionylpiperazin-1-yl)pentan-1-one] are more than 10 µM and less than 0.25 µM.
Consider `C[C@H](CCC(=O)N1CCN(c2ncnn2C)CC1)[C@H]1CC[C@H]2[C@@H]3CC=C4C[C@@H](O)CC[C@]4(C)[C@H]3CC[C@]12C` [Example 605, (R)-4-((3S,8S,9S,10R,13R,14S,17R)-3-hydroxy-10,13-dimethyl-2,3,4,7,8,9,10,11,12,13,14,15,16,17-tetradecahydro-1H-cyclopenta[a]phenanthren-17-yl)-1-(4-(1-methyl-1H-1,2,4-triazol-5-yl)piperazin-1-yl)pentan-1-one], for which, at LXRβ, the EC50 was more than 10 µM. On SREBP-2, the half-inhibitory concentration (IC50) was less than 0.25 µM.
Regarding `C[C@H](CCC(=O)N1CCN(C(=O)C2CCCC2)CC1)[C@H]1CC[C@H]2[C@@H]3CC=C4C[C@@H](O)CC[C@]4(C)[C@H]3CC[C@]12C` [Example 515, (R)-1-(4-(cyclopentanecarbonyl)piperazin-1-yl)-4-((3S,8S,9S,10R,13R,14S,17R)-3-hydroxy-10,13-dimethyl-2,3,4,7,8,9,10,11,12,13,14,15,16,17-tetradecahydro-1H-cyclopenta[a]phenanthren-17-yl)pentan-1-one], the EC50 at LXRβ was more than 10 µM. On SREBP-2, this compound registered an IC50 of less than 0.25 µM.

The values are drawn from patent US20230340011A1 (Asteroid Therapeutics, priority 2022, published 2023).
